Laboratory results: patent US7704723B2, “Isolation and characterization of novel clostridial species” (The Board of Regents For Oklahoma State University, priority 2006, dated 2010)
Marks after values point to notes of the source that are not given here.

How the values were obtained:
[1] = test system: Clostridium ljungdahlii strain PETC; test: Growth of reference strain PETC on substrates as sole carbon and energy sources; format: cell-based; conditions: for Substrate utilization, C. ljungdahlii: strain PETC, growth on substrate as sole carbon and energy source, final OD600
Source text: Organisms. Clostridium ljundahlii strain PETC was obtained from a fructose stock culture maintained by Dr. Ralph S. Tanner and was used as the reference control strain. Strain P11 was obtained from an anaerobic enrichment inoculated with fresh water sediment from the Duck Pond at the University of Oklahoma by a procedure described previously (Bryant, 1972) under an atmosphere of CO:N2:CO2 (75:15:10) and an initial pH of 6.0. The carbon monoxide oxidizing clostridium described within was named Clostridium ragsdalei. This bacterium was designated strain P11 and deposited with the American Type Culture Collection as strain ATCC BAA-622.
(§1) Except for the deletion of NaHCO3 and an initial pH 6.3, growth on organic and gaseous substrates was performed as previously described (Tanner et. al., 1993). Resazurin (1 mg/L) was used as the redox indicator. Purified agar was added to the medium at a concentration of 2% for colony morphology description (Table 5). Heat labile substrates were filter sterilized (not autoclaved) and added from sterile stock solutions to a final concentration of 5 g/L before inoculation. The optimum temperature and pH (initial pH) was determined in medium containing fructose as the substrate. For determination of the optimum pH, media was buffered with HOMOPIPES (homopiperazine-N,N′-bis-2-[ethanesulfonic acid] (Research Organics, Cleveland, Ohio), MES (2-[N-morpholino]ethanesulfonic acid), or TES (N-tris [hydroxymethyl]methyl-2-aminoethanesulfonic acid) at (1.0 g/L). A 0.1 ml (˜2%) inoculum of fructose-grown cells was used to initiate growth. All media components used in these experiments were obtained from Sigma unless otherwise noted (Sigma Chemical Co., St. Louis, Mo.).
(§2) Analytical methods. […] For the substrate malate, utilization was analyzed by HPLC (“high-performance liquid chromatography”) equipped with a UV detector set at 214 nm using a Alltech, Prevail Organic Acid column (4.6×150 mm, 5 μm; Alltech, Deerfield, Mich.) with a mobile phase of 25 mM KH2PO4, pH 2.5 and 10% (v/v) methanol.

[2] = test system: Clostridium ragsdalei strain P11; test: Growth of strain P11 on organic and gaseous substrates as sole carbon and energy sources; format: cell-based; conditions: for Substrate utilization, C. ragsdalei: strain P11, growth on substrate as sole carbon and energy source, final OD600; for Growth with substrate: Clostridium ragsdalei, malate and formate examined at pH 5.0-6.5
Experimental: as §1, §2

With `N#C[C@H](O[C@@H]1O[C@H](CO[C@@H]2O[C@H](CO)[C@@H](O)[C@H](O)[C@H]2O)[C@@H](O)[C@H](O)[C@H]1O)c1ccccc1` [Amygdalin] the “Substrate utilization, C. ljungdahlii” value [1] was “−” and the “Substrate utilization, C. ragsdalei” value [2] was “−”.

In the case of `NC(=O)CC[C@H](N)C(=O)O` [Glutamine], the “Substrate utilization, C. ljungdahlii” value [1] is reported as “−” and the “Substrate utilization, C. ragsdalei” value [2] is reported as “−”.

With `N[C@@H](Cc1c[nH]cn1)C(=O)O` [Histidine] the “Substrate utilization, C. ragsdalei” value [2] was “−”.

For Trimethoxybenzoic acid, the “Substrate utilization, C. ljungdahlii” value [1] was “−” and the “Substrate utilization, C. ragsdalei” value [2] was “−”.

In the case of `O=C([O-])CCC(=O)[O-].[Na+].[Na+]` [Na-Succinate], the “Substrate utilization, C. ljungdahlii” value [1] is reported as “−” and the “Substrate utilization, C. ragsdalei” value [2] is reported as “−”.

`O=C[C@H](O)[C@@H](O)CO` [L (+) Threose] was tested, and the “Substrate utilization, C. ljungdahlii” value [1] was “−” and the “Substrate utilization, C. ragsdalei” value [2] was “−”.

`OC[C@H]1O[C@H](O[C@H]2O[C@H](CO)[C@@H](O)[C@H](O)[C@H]2O)[C@H](O)[C@@H](O)[C@@H]1O` [Trehalose] was tested, and the “Substrate utilization, C. ljungdahlii” value [1] was “−” and the “Substrate utilization, C. ragsdalei” value [2] was “−”.

`OC[C@H]1O[C@@H](O[C@H]2[C@H](O)[C@@H](O)C(O)O[C@@H]2CO)[C@H](O)[C@@H](O)[C@H]1O` (stereo partly shown) [Lactose] was tested, and the “Substrate utilization, C. ljungdahlii” value [1] was “−” and the “Substrate utilization, C. ragsdalei” value [2] was “−”.

For Inulin, the “Substrate utilization, C. ljungdahlii” value [1] was “−” and the “Substrate utilization, C. ragsdalei” value [2] was “−”.

In the case of Pectin, the “Substrate utilization, C. ljungdahlii” value [1] is reported as “−” and the “Substrate utilization, C. ragsdalei” value [2] is reported as “−”.

With `C[C@H](N)C(=O)O` [Alanine] the Growth with substrate [2] was “chemoorganotrophic growth was observed”.

For `O=C[C@@H](O)[C@H](O)[C@H](O)CO` [Arabinose], the “Substrate utilization, C. ragsdalei” value [2] was “−”.

For `O=C(O)[C@H](O)[C@@H](O)[C@H](O)[C@H](O)CO` [Gluconic acid], the “Substrate utilization, C. ragsdalei” value [2] was “−”.

`N[C@@H](CCC(=O)O)C(=O)O` [Glutamate] was tested, and the “Substrate utilization, C. ljungdahlii” value [1] was “+^† (positive (indicates a final OD600 of greater than or equal to 0.1.))”, the Growth with substrate [2] was “chemoorganotrophic growth was observed” and the “Substrate utilization, C. ragsdalei” value [2] was “+ (positive (indicates a final OD600 of greater than or equal to 0.1.))”.

In the case of `O=C[C@@H](O)[C@H](O)CO` [D (−) Threose], the Growth with substrate [2] is reported as “chemoorganotrophic growth was observed”.

`OC[C@H]1O[C@H](OCC2O[C@@H](O)[C@H](O)[C@@H](O)[C@@H]2O)[C@H](O)[C@@H](O)[C@H]1O` (stereo partly shown) [Melibiose] was tested, and the “Substrate utilization, C. ljungdahlii” value [1] was “−” and the “Substrate utilization, C. ragsdalei” value [2] was “−”.

With `O=C[O-].[Na+]` [Na-Formate] the “Substrate utilization, C. ljungdahlii” value [1] was “−”, the Growth with substrate [2] was “did not initially support growth” and the “Substrate utilization, C. ragsdalei” value [2] was “−”.

For `OC[C@H]1O[C@@](CO)(O[C@H]2O[C@H](CO)[C@@H](O)[C@H](O)[C@H]2O)[C@@H](O[C@H]2O[C@H](CO)[C@@H](O)[C@H](O)[C@H]2O)[C@@H]1O` [Melizitose], the “Substrate utilization, C. ljungdahlii” value [1] was “−” and the “Substrate utilization, C. ragsdalei” value [2] was “−”.

For `CO` [Methanol], the “Substrate utilization, C. ljungdahlii” value [1] was “−” and the “Substrate utilization, C. ragsdalei” value [2] was “−”.

For `O=C[C@H](O)[C@@H](O)[C@H](O)CO` [Xylose], the Growth with substrate [2] was “chemoorganotrophic growth was observed” and the Doubling time ([2]; strain P11 grown with the substrate under optimal conditions) was 0.220 h⁻¹.

In the case of Cellulose, the “Substrate utilization, C. ljungdahlii” value [1] is reported as “−” and the “Substrate utilization, C. ragsdalei” value [2] is reported as “−”.

With `O=C(O)CO` [Glycolic acid] the “Substrate utilization, C. ljungdahlii” value [1] was “−” and the “Substrate utilization, C. ragsdalei” value [2] was “−”.

`O=C([O-])/C=C/C(=O)[O-].[Na+].[Na+]` [Na-Fumarate] was tested, and the “Substrate utilization, C. ragsdalei” value [2] was “−”.

With `OC[C@@H](O)[C@@H](O)[C@H](O)[C@@H](O)CO` [Sorbitol] the “Substrate utilization, C. ljungdahlii” value [1] was “−” and the “Substrate utilization, C. ragsdalei” value [2] was “−”.

For `O=C([O-])CC(O)(CC(=O)[O-])C(=O)[O-].[Na+].[Na+].[Na+]` [Na-Citrate], the “Substrate utilization, C. ljungdahlii” value [1] was “+* (positive (indicates a final OD600 of greater than or equal to 0.1.))” and the “Substrate utilization, C. ragsdalei” value [2] was “−”.

`C[C@H](O)[C@@H](O)[C@@H](O)[C@H](O)C=O` [Fucose] was tested, and the “Substrate utilization, C. ljungdahlii” value [1] was “−” and the “Substrate utilization, C. ragsdalei” value [2] was “−”.

`O=C(O)CC(O)C(=O)O` (stereo not shown) [Malic acid] was tested, and the “Growth with malate as the sole carbon source after adaptation” value ([1]; after incubation of about thirty days, pH 5.0-6.5) was “able to grow”, the “Substrate utilization, C. ljungdahlii” value [1] was “−” and the Growth with substrate [2] was “did not initially support growth”. For the same compound, the “Substrate utilization, C. ragsdalei” value [2] was “−”.

`O=C[C@H](O)[C@@H](O)[C@@H](O)[C@H](O)CO` [Galactose] was tested, and the “Substrate utilization, C. ljungdahlii” value [1] was “−” and the “Substrate utilization, C. ragsdalei” value [2] was “−”.

For `OC[C@H]1O[C@@H](O[C@H]2[C@H](O)[C@@H](O)[C@H](O)O[C@@H]2CO)[C@H](O)[C@@H](O)[C@@H]1O` [Cellibiose], the “Substrate utilization, C. ljungdahlii” value [1] was “−” and the “Substrate utilization, C. ragsdalei” value [2] was “−”.

With `C[C@H](O)[C@H](O)[C@@H](O)[C@@H](O)C=O` [Rhamnose] the “Substrate utilization, C. ragsdalei” value [2] was “−”.

With Glycogen the “Substrate utilization, C. ljungdahlii” value [1] was “−” and the “Substrate utilization, C. ragsdalei” value [2] was “−”.

`CCC(=O)[O-].[Na+]` [Na-Propionate] was tested, and the “Substrate utilization, C. ljungdahlii” value [1] was “−” and the “Substrate utilization, C. ragsdalei” value [2] was “−”.

In the case of `CC(=O)C(=O)O` [Na-Pyruvate], the Growth with substrate [2] is reported as “chemoorganotrophic growth was observed”.

With `CC(C)O` [Iso-propanol] the “Substrate utilization, C. ljungdahlii” value [1] was “−” and the “Substrate utilization, C. ragsdalei” value [2] was “−”.

For `O=C(CO)[C@@H](O[C@H]1O[C@H](CO)[C@@H](O)[C@H](O)[C@H]1O)[C@H](O)[C@H](O)CO` [Turanose], the “Substrate utilization, C. ljungdahlii” value [1] was “−” and the “Substrate utilization, C. ragsdalei” value [2] was “−”.

`OC[C@@H](O)[C@@H](O)[C@H](O)[C@H](O)CO` [Mannitol] was tested, and the “Substrate utilization, C. ljungdahlii” value [1] was “−” and the “Substrate utilization, C. ragsdalei” value [2] was “−”.

With Starch the “Substrate utilization, C. ljungdahlii” value [1] was “−” and the “Substrate utilization, C. ragsdalei” value [2] was “−”.

For `OC[C@H]1O[C@H](O[C@H]2[C@H](O)[C@@H](O)[C@H](O)O[C@@H]2CO)[C@H](O)[C@@H](O)[C@@H]1O` [Maltose], the “Substrate utilization, C. ljungdahlii” value [1] was “−” and the “Substrate utilization, C. ragsdalei” value [2] was “−”.

With `O[C@H]1[C@H](O)[C@@H](O)[C@H](O)[C@@H](O)[C@H]1O` [Inositol] the “Substrate utilization, C. ljungdahlii” value [1] was “−” and the “Substrate utilization, C. ragsdalei” value [2] was “−”.

For `CC(=O)[O-].[Na+]` [Na-Acetate], the “Substrate utilization, C. ljungdahlii” value [1] was “−” and the “Substrate utilization, C. ragsdalei” value [2] was “−”.

With `CC(O)C(=O)[O-].[Na+]` (stereo not shown) [Na-Lactate] the “Substrate utilization, C. ljungdahlii” value [1] was “−” and the “Substrate utilization, C. ragsdalei” value [2] was “−”.

`N=C(N)NCCC[C@H](N)C(=O)O` [Arginine] was tested, and the “Substrate utilization, C. ragsdalei” value [2] was “−”.

`O=C(O)CCC(=O)C(=O)O` [alpha-ketoglutarate] was tested, and the “Substrate utilization, C. ljungdahlii” value [1] was “+ (positive (indicates a final OD600 of greater than or equal to 0.1.))” and the “Substrate utilization, C. ragsdalei” value [2] was “−”.

In the case of `N[C@@H](CO)C(=O)O` [Serine], the Growth with substrate [2] is reported as “chemoorganotrophic growth was observed”.

In the case of `O=C(O)/C=C\C(=O)O` [Maleic acid], the “Substrate utilization, C. ljungdahlii” value [1] is reported as “−” and the “Substrate utilization, C. ragsdalei” value [2] is reported as “−”.

With `O=C[C@H](O)[C@H](O)CO` [Erythrose] the “Substrate utilization, C. ljungdahlii” value [1] was “−” and the “Substrate utilization, C. ragsdalei” value [2] was “−”.

In the case of `C[N+](C)(C)CC(=O)O` [Betaine], the “Substrate utilization, C. ljungdahlii” value [1] is reported as “−” and the “Substrate utilization, C. ragsdalei” value [2] is reported as “−”.

With `O=C(CO)[C@@H](O)[C@H](O)[C@H](O)CO` [Fructose] the Growth with substrate [2] was “chemoorganotrophic growth was observed”.

With `OCC(O)CO` [Glycerol] the “Substrate utilization, C. ljungdahlii” value [1] was “−” and the “Substrate utilization, C. ragsdalei” value [2] was “−”.

In the case of `CCCO` [1-Propanol], the “Substrate utilization, C. ljungdahlii” value [1] is reported as “+^† (positive (indicates a final OD600 of greater than or equal to 0.1.))”, the Growth with substrate [2] is reported as “chemoorganotrophic growth was observed” and the “Substrate utilization, C. ragsdalei” value [2] is reported as “+ (positive (indicates a final OD600 of greater than or equal to 0.1.))”.

`OCc1ccccc1O[C@@H]1O[C@H](CO)[C@@H](O)[C@H](O)[C@H]1O` [Salicin] was tested, and the “Substrate utilization, C. ljungdahlii” value [1] was “−” and the “Substrate utilization, C. ragsdalei” value [2] was “−”.

`OC[C@H]1O[C@@](CO)(O[C@H]2O[C@H](CO)[C@@H](O)[C@H](O)[C@H]2O)[C@@H](O)[C@@H]1O` [Sucrose] was tested, and the Growth with substrate [2] was “chemoorganotrophic growth was observed”.
